Calls of active or inactive are those of the source. No cut-off for these calls is given here.
How the values were obtained:
[1] = molecular target: Sphingosine 1-phosphate receptor 1 (Homo sapiens, UniProt P21453); assay: Agonist activity at S1P1 receptor (unknown origin) expressed in CHO cells incubated for 2 hrs by HTRF-IP1 assay; type: cell-based
[2] = molecular target: Sphingosine 1-phosphate receptor 3 (Homo sapiens, UniProt Q99500); assay: Agonist activity at S1P3 receptor (unknown origin) expressed in CHO cells incubated for 2 hrs by HTRF-IP1 assay; type: cell-based
Homo sapiens = organism: Homo sapiens; assay: Selectivity ratio of EC50 for S1P3 receptor (unknown origin) to EC50 for S1P1 receptor (unknown origin)
Blood [3] = assay: Drug metabolism in Sprague-Dawley rat blood assessed as formation of 2-amino-2-(2-(4'-(2-(2-hydroxypropyl)oxazol-4-yl)biphenyl-4-yl)ethyl)propane-1,3-diol hydrochloride at 3 mg/kg, po measured at 0.08 to 48 hrs by LC-MS/MS analysis; type: ADME, organism-based; conditions: in vivo
Rattus norvegicus = assay: Lymphopenia activity in Sprague-Dawley rat assessed as decrease in lymphocytes in peripheral blood at 3 mg/kg, po after 24 hrs by hematology analyzer; type: functional, organism-based
Blood [4] = assay: Drug level in Sprague-Dawley rat blood assessed as compound formation treated with SYL930 at 3 mg/kg, po measured at 0.08 to 48 hrs by LC-MS/MS analysis; type: ADME, organism-based; conditions: in vivo
Blood [5] = assay: Retention time of compound in Sprague-Dawley rat blood treated with SYL930 at 3 mg/kg, po by LC-MS/MS analysis; type: ADME, organism-based; conditions: in vivo
Blood [6] = assay: Drug metabolism in Sprague-Dawley rat blood assessed as formation of 2-amino-2-(2-(4'-(2-(1-hydroxyethyl)oxazol-4-yl)biphenyl-4-yl)ethyl)propane-1,3-diol hydrochloride at 3 mg/kg, po measured at 0.08 to 48 hrs by LC-MS/MS analysis; type: ADME, organism-based; conditions: in vivo
Blood [7] = assay: Drug level in Sprague-Dawley rat blood assessed as compound formation treated with SYL927 at 3 mg/kg, po measured at 0.08 to 48 hrs by LC-MS/MS analysis; type: ADME, organism-based; conditions: in vivo
Blood [8] = assay: Retention time of compound in Sprague-Dawley rat blood treated with SYL927 at 3 mg/kg, po by LC-MS/MS analysis; type: ADME, organism-based; conditions: in vivo

Sequence of Sphingosine 1-phosphate receptor 3 (Q99500 whole entry): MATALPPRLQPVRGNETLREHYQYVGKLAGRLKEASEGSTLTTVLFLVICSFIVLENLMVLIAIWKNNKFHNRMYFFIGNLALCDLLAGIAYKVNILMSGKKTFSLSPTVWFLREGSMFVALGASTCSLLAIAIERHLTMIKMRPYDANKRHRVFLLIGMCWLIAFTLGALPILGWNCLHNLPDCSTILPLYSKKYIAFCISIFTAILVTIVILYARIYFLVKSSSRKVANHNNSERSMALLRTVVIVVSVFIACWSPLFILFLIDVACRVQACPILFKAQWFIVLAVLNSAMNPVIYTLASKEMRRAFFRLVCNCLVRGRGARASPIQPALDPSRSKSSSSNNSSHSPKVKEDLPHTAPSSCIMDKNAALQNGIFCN
Sequence of Sphingosine 1-phosphate receptor 1 (P21453 whole entry): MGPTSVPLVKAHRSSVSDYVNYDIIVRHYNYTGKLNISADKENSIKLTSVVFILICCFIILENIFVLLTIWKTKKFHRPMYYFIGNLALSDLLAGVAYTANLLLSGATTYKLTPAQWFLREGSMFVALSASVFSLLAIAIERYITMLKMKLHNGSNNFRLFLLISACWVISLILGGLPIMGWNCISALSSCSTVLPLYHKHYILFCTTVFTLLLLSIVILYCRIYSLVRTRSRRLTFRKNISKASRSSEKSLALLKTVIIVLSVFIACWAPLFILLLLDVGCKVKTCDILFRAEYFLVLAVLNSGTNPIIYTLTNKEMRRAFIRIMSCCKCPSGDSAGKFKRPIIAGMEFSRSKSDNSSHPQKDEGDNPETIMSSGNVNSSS

| Compound | EC50 [1] [nM] | EC50 [2] [µM] | Ratio EC50 (Homo sapiens) | Drug metabolism (Blood [3]) | Activity (Rattus norvegicus) | Drug metabolism (Blood [4]) | Retention_time (Blood [5]) [min] | Drug metabolism (Blood [6]) | Drug metabolism (Blood [7]) | Retention_time (Blood [8]) [min] |
| --- | --- | --- | --- | --- | --- | --- | --- | --- | --- | --- |
| CCCc1nc(-c2ccc(-c3ccc(CCC(N)(CO)CO)cc3)cc2)co1.Cl | 1610 | > 10 | > 6 | metabolite_detected | Active | – | – | – | – | – |
| CCc1nc(-c2ccc(-c3ccc(CCC(N)(CO)COP(=O)(O)O)cc3)cc2)co1 (stereo unspecified) | 7 | 1.06 | 151 | – | – | – | – | – | – | – |
| CC(O)Cc1nc(-c2ccc(-c3ccc(CCC(N)(CO)CO)cc3)cc2)co1.Cl (stereo unspecified) | 1520 | > 10 | > 6 | – | Active | metabolite_detected | 13 | – | – | – |
| CCCc1nc(-c2ccc(-c3ccc(CCC(N)(CO)COP(=O)(O)O)cc3)cc2)co1 (stereo unspecified) | 13.3 | 0.484 | 36 | – | – | – | – | – | – | – |
| CCc1nc(-c2ccc(-c3ccc(CCC(N)(CO)CO)cc3)cc2)co1.Cl | > 10000 | > 10 | – | – | Active | – | – | metabolite_detected | – | – |
| CC(O)c1nc(-c2ccc(-c3ccc(CCC(N)(CO)CO)cc3)cc2)co1.Cl (stereo unspecified) | > 10000 | > 10 | – | – | Active | – | – | – | metabolite_detected | 6.6 |

From ChEMBL document CHEMBL3779869, “Synthesis, identification, and biological activity of metabolites of two novel selective S1P1 agonists” (Bioorg Med Chem, 2016)
